Assay results as given in the supplement of paper PMC10307832.

Experiments:
Test in all cases: relative viability (nuclei count vs DMSO), 5 days (fraction); higher = more cells survive
[1] = compound: C1/C(=C\C2=CC=CS2)/C(=O)/C(=C/C3=CC=CS3)/C1 + Cc1nc(Nc2ncc(C(=O)Nc3c(C)cccc3Cl)s2)cc(N2CCN(CCO)CC2)n1 [Dasatinib] (partner 0.075 µM)
Procedure, shortened: (§1)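 Medians of duplicate plates are given as relative viability. That measure is the nuclei count in treated wells divided by the count in vehicle wells. Counts were taken on 4× images of lung cancer cell lines in 1536-well plates, 5 days after pin-tool dosing the day after seeding with one drug alone or a fixed anchor-drug dose plus five library-drug doses (not always all listed) in √10 steps.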

[2] = compound: C1=CC(=CC=C1C2=CC(=C(S2)NC(=O)N)C(=O)N)F [TPCA-1] + NC(=O)Nc1cc(-c2cccc(F)c2)sc1C(=O)N[C@H]1CCCNC1 [AZD7762] (partner 0.2 µM)
Procedure, shortened: as §1

[3] = compound: C1/C(=C\C2=CC=CS2)/C(=O)/C(=C/C3=CC=CS3)/C1 + CC(=O)c1c(C)c2cnc(Nc3ccc(N4CCNCC4)cn3)nc2n(C2CCCC2)c1=O [Palbociclib] (partner 0.5 µM)
Procedure, shortened: as §1

[4] = compound: C1=CC(=CC=C1C2=CC(=C(S2)NC(=O)N)C(=O)N)F [TPCA-1] + COc1cccc2cc(-c3nc([C@H]4CC[C@H](C(=O)O)CC4)n4ncnc(N)c34)[nH]c12 [OSI-027] (partner 0.5 µM)
Procedure, shortened: as §1

In the case of NCI-H1993, the relative viability ([1]; first compound 0.2 µM) is reported as 0.545, the relative viability ([1]; first compound 0.6325 µM) is reported as 0.48 and the relative viability ([1]; first compound 2 µM) is reported as 0.616. For the same cell line, the relative viability ([1]; first compound 6.325 µM) was 0.457, the relative viability ([1]; first compound 20 µM) was 0.649 and the relative viability ([2]; first compound 0.04 µM) was 0.972. The relative viability ([2]; first compound 0.1265 µM) was 0.748, the relative viability ([2]; first compound 0.4 µM) was 0.745 and the relative viability ([2]; first compound 1.265 µM) was 0.747. It also gave a relative viability ([2]; first compound 4 µM) of 0.598, a relative viability ([3]; first compound 0.2 µM) of 0.643 and a relative viability ([3]; first compound 0.6325 µM) of 0.639. The relative viability ([3]; first compound 2 µM) was 0.595, the relative viability ([3]; first compound 6.325 µM) was 0.562 and the relative viability ([3]; first compound 20 µM) was 0.646. It also gave a relative viability ([4]; first compound 0.04 µM) of 0.544, a relative viability ([4]; first compound 0.1265 µM) of 0.524 and a relative viability ([4]; first compound 0.4 µM) of 0.521. It also gave a relative viability ([4]; first compound 1.265 µM) of 0.536 and a relative viability ([4]; first compound 4 µM) of 0.556.
NCI-H2085 was tested, and the relative viability ([1]; first compound 0.2 µM) was 0.233, the relative viability ([1]; first compound 0.6325 µM) was 0.258 and the relative viability ([1]; first compound 2 µM) was 0.221. For the same cell line, the relative viability ([1]; first compound 6.325 µM) was 0.237, the relative viability ([1]; first compound 20 µM) was 0.236 and the relative viability ([2]; first compound 0.1265 µM) was 1.02. For the same cell line, the relative viability ([2]; first compound 0.4 µM) was 1.01, the relative viability ([2]; first compound 1.265 µM) was 0.9 and the relative viability ([2]; first compound 4 µM) was 0.669. For the same cell line, the relative viability ([3]; first compound 0.2 µM) was 0.482, the relative viability ([3]; first compound 0.6325 µM) was 0.5 and the relative viability ([3]; first compound 2 µM) was 0.484. The relative viability ([3]; first compound 6.325 µM) was 0.46, the relative viability ([3]; first compound 20 µM) was 0.495 and the relative viability ([4]; first compound 0.04 µM) was 0.978. It also gave a relative viability ([4]; first compound 0.1265 µM) of 0.689, a relative viability ([4]; first compound 0.4 µM) of 0.731 and a relative viability ([4]; first compound 1.265 µM) of 0.462. For the same cell line, the relative viability ([4]; first compound 4 µM) was 0.354.
With NCI-H2087 the relative viability ([1]; first compound 0.2 µM) was 0.942, the relative viability ([1]; first compound 0.6325 µM) was 0.879 and the relative viability ([1]; first compound 2 µM) was 1.03. For the same cell line, the relative viability ([1]; first compound 6.325 µM) was 0.655, the relative viability ([1]; first compound 20 µM) was 0.878 and the relative viability ([2]; first compound 0.04 µM) was 1.24. The relative viability ([2]; first compound 0.1265 µM) was 1.3, the relative viability ([2]; first compound 0.4 µM) was 1.34 and the relative viability ([2]; first compound 1.265 µM) was 1.29. The relative viability ([2]; first compound 4 µM) was 0.758, the relative viability ([3]; first compound 0.2 µM) was 0.272 and the relative viability ([3]; first compound 0.6325 µM) was 0.215. It also gave a relative viability ([3]; first compound 2 µM) of 0.271, a relative viability ([3]; first compound 6.325 µM) of 0.168 and a relative viability ([3]; first compound 20 µM) of 0.303. It also gave a relative viability ([4]; first compound 0.04 µM) of 0.554, a relative viability ([4]; first compound 0.1265 µM) of 0.444 and a relative viability ([4]; first compound 0.4 µM) of 0.537. It also gave a relative viability ([4]; first compound 1.265 µM) of 0.414 and a relative viability ([4]; first compound 4 µM) of 0.207.
In the case of NCI-H2126, the relative viability ([1]; first compound 0.2 µM) is reported as 0.624, the relative viability ([1]; first compound 0.6325 µM) is reported as 0.585 and the relative viability ([1]; first compound 2 µM) is reported as 0.597. It also gave a relative viability ([1]; first compound 6.325 µM) of 0.532, a relative viability ([1]; first compound 20 µM) of 0.577 and a relative viability ([2]; first compound 0.04 µM) of 0.996. For the same cell line, the relative viability ([2]; first compound 0.1265 µM) was 0.936, the relative viability ([2]; first compound 0.4 µM) was 1.03 and the relative viability ([2]; first compound 1.265 µM) was 0.978. It also gave a relative viability ([2]; first compound 4 µM) of 0.87, a relative viability ([3]; first compound 0.2 µM) of 0.343 and a relative viability ([3]; first compound 0.6325 µM) of 0.339. The relative viability ([3]; first compound 2 µM) was 0.363, the relative viability ([3]; first compound 6.325 µM) was 0.332 and the relative viability ([3]; first compound 20 µM) was 0.374. It also gave a relative viability ([4]; first compound 0.04 µM) of 0.623, a relative viability ([4]; first compound 0.1265 µM) of 0.961 and a relative viability ([4]; first compound 0.4 µM) of 0.786. It also gave a relative viability ([4]; first compound 1.265 µM) of 0.685 and a relative viability ([4]; first compound 4 µM) of 0.616.
NCI-H2170 showed a relative viability ([1]; first compound 0.2 µM) of 0.47, a relative viability ([1]; first compound 0.6325 µM) of 0.632 and a relative viability ([1]; first compound 2 µM) of 0.639. The relative viability ([1]; first compound 6.325 µM) was 0.622, the relative viability ([1]; first compound 20 µM) was 0.511 and the relative viability ([2]; first compound 0.04 µM) was 1.13. The relative viability ([2]; first compound 0.1265 µM) was 0.815, the relative viability ([2]; first compound 0.4 µM) was 0.892 and the relative viability ([2]; first compound 1.265 µM) was 0.766. It also gave a relative viability ([2]; first compound 4 µM) of 0.474, a relative viability ([3]; first compound 0.2 µM) of 0.386 and a relative viability ([3]; first compound 0.6325 µM) of 0.382. It also gave a relative viability ([3]; first compound 2 µM) of 0.376, a relative viability ([3]; first compound 6.325 µM) of 0.248 and a relative viability ([3]; first compound 20 µM) of 0.393. It also gave a relative viability ([4]; first compound 0.04 µM) of 0.789, a relative viability ([4]; first compound 0.1265 µM) of 0.641 and a relative viability ([4]; first compound 0.4 µM) of 0.716. It also gave a relative viability ([4]; first compound 1.265 µM) of 0.584 and a relative viability ([4]; first compound 4 µM) of 0.396.
With NCI-H2342 the relative viability ([1]; first compound 0.2 µM) was 0.314, the relative viability ([1]; first compound 0.6325 µM) was 0.347 and the relative viability ([1]; first compound 2 µM) was 0.352. It also gave a relative viability ([1]; first compound 6.325 µM) of 0.306, a relative viability ([1]; first compound 20 µM) of 0.326 and a relative viability ([2]; first compound 0.04 µM) of 0.504. For the same cell line, the relative viability ([2]; first compound 0.1265 µM) was 0.469, the relative viability ([2]; first compound 0.4 µM) was 0.403 and the relative viability ([2]; first compound 1.265 µM) was 0.349. The relative viability ([2]; first compound 4 µM) was 0.404, the relative viability ([3]; first compound 0.2 µM) was 0.511 and the relative viability ([3]; first compound 0.6325 µM) was 0.568. For the same cell line, the relative viability ([3]; first compound 2 µM) was 0.531, the relative viability ([3]; first compound 6.325 µM) was 0.482 and the relative viability ([3]; first compound 20 µM) was 0.516. For the same cell line, the relative viability ([4]; first compound 0.04 µM) was 0.566, the relative viability ([4]; first compound 0.1265 µM) was 0.537 and the relative viability ([4]; first compound 0.4 µM) was 0.536. The relative viability ([4]; first compound 1.265 µM) was 0.555 and the relative viability ([4]; first compound 4 µM) was 0.514.
NCI-H2347 showed a relative viability ([1]; first compound 0.2 µM) of 0.323, a relative viability ([1]; first compound 0.6325 µM) of 0.281 and a relative viability ([1]; first compound 2 µM) of 0.311. It also gave a relative viability ([1]; first compound 20 µM) of 0.352, a relative viability ([2]; first compound 0.04 µM) of 0.729 and a relative viability ([2]; first compound 0.1265 µM) of 0.717. The relative viability ([2]; first compound 0.4 µM) was 0.923, the relative viability ([2]; first compound 1.265 µM) was 0.739 and the relative viability ([2]; first compound 4 µM) was 0.633. It also gave a relative viability ([3]; first compound 0.2 µM) of 0.381, a relative viability ([3]; first compound 0.6325 µM) of 0.454 and a relative viability ([3]; first compound 2 µM) of 0.449. For the same cell line, the relative viability ([3]; first compound 6.325 µM) was 0.398, the relative viability ([3]; first compound 20 µM) was 0.413 and the relative viability ([4]; first compound 0.04 µM) was 0.442. For the same cell line, the relative viability ([4]; first compound 0.1265 µM) was 0.483, the relative viability ([4]; first compound 0.4 µM) was 0.43 and the relative viability ([4]; first compound 1.265 µM) was 0.346. It also gave a relative viability ([4]; first compound 4 µM) of 0.518.
For NCI-H2405, the relative viability ([1]; first compound 0.2 µM) was 0.223, the relative viability ([1]; first compound 0.6325 µM) was 0.212 and the relative viability ([1]; first compound 2 µM) was 0.224. The relative viability ([1]; first compound 6.325 µM) was 0.211, the relative viability ([1]; first compound 20 µM) was 0.221 and the relative viability ([2]; first compound 0.04 µM) was 0.859. It also gave a relative viability ([2]; first compound 0.1265 µM) of 0.738, a relative viability ([2]; first compound 0.4 µM) of 0.877 and a relative viability ([2]; first compound 1.265 µM) of 0.79. The relative viability ([2]; first compound 4 µM) was 0.648, the relative viability ([3]; first compound 0.2 µM) was 0.555 and the relative viability ([3]; first compound 0.6325 µM) was 0.509. The relative viability ([3]; first compound 2 µM) was 0.575, the relative viability ([3]; first compound 6.325 µM) was 0.52 and the relative viability ([3]; first compound 20 µM) was 0.504. The relative viability ([4]; first compound 0.04 µM) was 0.673, the relative viability ([4]; first compound 0.1265 µM) was 0.6 and the relative viability ([4]; first compound 0.4 µM) was 0.65. It also gave a relative viability ([4]; first compound 1.265 µM) of 0.36 and a relative viability ([4]; first compound 4 µM) of 0.629.
